The text below walks through data of patent publication US20240116921A1, “LACTAM (HETERO)[…] DERIVATIVES AS INHIBITORS OF ERBB2” (EnLiven Therapeutics, Inc., priority 2020, published 2024).

Assay [1] concerns the target Ba/F3 ERBB2 A775_G776insYVMA (Homo sapiens, UniProt P04626, DUP772-775, cells depend on it). The assay is described as follows: Cell viability assay, Ba/F3 ERBB2 A775_G776insYVMA. The format is cell-based, mouse. To be noted: Ba/F3 ERBB2 YVMA cells, cell viability, 72 hours, CellTiter Glo; Table B5; read-out: Ba/F3 ERBB2 YVMA, IC50. In outline: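 IL-3-independent Ba/F3 lines stably expressing the human ERBB2 insertion mutants were seeded at 3000 cells/well and exposed to compounds for 72 h at 37 °C, 5% CO2. Viability was read as ATP by CellTiter-Glo luminescence. Curves were fitted by sigmoidal nonlinear regression.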
For orientation: In ATP-based viability assays light output follows the ATP content of the culture.

Assay [2] deals with T1, phosphorylated EGFR (pEGFR) (Homo sapiens, UniProt P00533).
T1 construct: performed to measure phosphorylated EGFR levels using A431 cells (10% FBS); endogenous in cells; host or cells: A431
The assay is described as follows: Detection of phosphorylated EGFR (pEGFR) in EGF-stimulated A431 cells. It is filed as cell-based. To be noted: A431 cells (10% FBS), 4 hours incubation, EGF 30 ng/mL 10 minutes, AlphaLISA. Put shortly:
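A431 cells in 10% FBS were preincubated with compound for 4 h at 37 °C, then stimulated with EGF (30 ng/mL final) for 10 min. pEGFR in lysates was read by AlphaLISA. % inhibition was calculated against DMSO and staurosporine-treated controls, and IC50 came from a four-parameter curve fit.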
Background: Alpha assays give light when donor and acceptor beads are brought close together.

Assay [3] deals with T2, phosphorylated ERBB2 (pERBB2) (Homo sapiens, UniProt P04626).
T2 construct: endogenous in cells; host or cells: BT-474
The experiment in a line: Detection of phosphorylated ERBB2 (pERBB2) by ELISA in BT-474 cells. It is filed as cell-based. To be noted: four hours incubation. In outline:
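BT-474 cells (2.0×10^4/well) treated 4 h at 37 °C, 5% CO2 with compounds in four-fold dilutions from 10 µM to 0.01 nM. Lysate pERBB2 measured by ELISA with TMB read at 450 nm; % relative activity scaled between no-cell wells and 0.1% DMSO-treated cells.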
(In an ELISA, binding on a coated surface is turned into a signal by an enzyme label.)

Where a name gives a salt, the structure may show the parent alone.

T2 sequence (P04626 23-1255): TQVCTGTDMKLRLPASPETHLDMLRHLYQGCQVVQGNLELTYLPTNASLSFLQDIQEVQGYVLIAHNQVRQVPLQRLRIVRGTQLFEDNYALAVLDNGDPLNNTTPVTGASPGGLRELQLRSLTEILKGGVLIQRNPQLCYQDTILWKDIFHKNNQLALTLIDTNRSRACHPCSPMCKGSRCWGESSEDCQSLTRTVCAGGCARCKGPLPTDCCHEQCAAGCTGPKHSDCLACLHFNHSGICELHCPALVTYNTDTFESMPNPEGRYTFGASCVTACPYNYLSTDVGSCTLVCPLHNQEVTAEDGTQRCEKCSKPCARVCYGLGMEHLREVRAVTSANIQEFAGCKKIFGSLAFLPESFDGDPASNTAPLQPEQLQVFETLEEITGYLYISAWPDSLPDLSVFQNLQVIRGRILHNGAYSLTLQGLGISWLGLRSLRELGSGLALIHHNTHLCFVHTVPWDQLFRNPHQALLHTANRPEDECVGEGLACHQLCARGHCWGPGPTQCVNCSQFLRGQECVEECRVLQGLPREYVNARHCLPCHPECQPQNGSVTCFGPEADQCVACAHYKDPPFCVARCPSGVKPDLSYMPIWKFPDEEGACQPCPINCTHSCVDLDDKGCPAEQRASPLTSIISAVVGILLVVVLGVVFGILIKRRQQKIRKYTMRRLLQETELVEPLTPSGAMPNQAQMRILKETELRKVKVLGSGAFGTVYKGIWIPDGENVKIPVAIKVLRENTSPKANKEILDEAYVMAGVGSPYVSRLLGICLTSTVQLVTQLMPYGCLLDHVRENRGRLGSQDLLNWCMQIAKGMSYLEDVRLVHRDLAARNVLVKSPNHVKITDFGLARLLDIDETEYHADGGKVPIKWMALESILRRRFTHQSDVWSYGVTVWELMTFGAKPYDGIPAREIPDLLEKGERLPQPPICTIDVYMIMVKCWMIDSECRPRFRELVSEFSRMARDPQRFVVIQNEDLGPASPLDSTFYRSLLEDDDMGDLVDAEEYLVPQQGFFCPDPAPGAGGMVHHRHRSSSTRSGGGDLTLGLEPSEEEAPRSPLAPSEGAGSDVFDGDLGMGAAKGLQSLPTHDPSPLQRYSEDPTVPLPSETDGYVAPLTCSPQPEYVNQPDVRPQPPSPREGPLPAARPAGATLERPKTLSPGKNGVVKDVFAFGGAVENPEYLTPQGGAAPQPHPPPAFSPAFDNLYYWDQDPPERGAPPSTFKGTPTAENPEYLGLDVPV
T1 sequence (P00533 25-1210): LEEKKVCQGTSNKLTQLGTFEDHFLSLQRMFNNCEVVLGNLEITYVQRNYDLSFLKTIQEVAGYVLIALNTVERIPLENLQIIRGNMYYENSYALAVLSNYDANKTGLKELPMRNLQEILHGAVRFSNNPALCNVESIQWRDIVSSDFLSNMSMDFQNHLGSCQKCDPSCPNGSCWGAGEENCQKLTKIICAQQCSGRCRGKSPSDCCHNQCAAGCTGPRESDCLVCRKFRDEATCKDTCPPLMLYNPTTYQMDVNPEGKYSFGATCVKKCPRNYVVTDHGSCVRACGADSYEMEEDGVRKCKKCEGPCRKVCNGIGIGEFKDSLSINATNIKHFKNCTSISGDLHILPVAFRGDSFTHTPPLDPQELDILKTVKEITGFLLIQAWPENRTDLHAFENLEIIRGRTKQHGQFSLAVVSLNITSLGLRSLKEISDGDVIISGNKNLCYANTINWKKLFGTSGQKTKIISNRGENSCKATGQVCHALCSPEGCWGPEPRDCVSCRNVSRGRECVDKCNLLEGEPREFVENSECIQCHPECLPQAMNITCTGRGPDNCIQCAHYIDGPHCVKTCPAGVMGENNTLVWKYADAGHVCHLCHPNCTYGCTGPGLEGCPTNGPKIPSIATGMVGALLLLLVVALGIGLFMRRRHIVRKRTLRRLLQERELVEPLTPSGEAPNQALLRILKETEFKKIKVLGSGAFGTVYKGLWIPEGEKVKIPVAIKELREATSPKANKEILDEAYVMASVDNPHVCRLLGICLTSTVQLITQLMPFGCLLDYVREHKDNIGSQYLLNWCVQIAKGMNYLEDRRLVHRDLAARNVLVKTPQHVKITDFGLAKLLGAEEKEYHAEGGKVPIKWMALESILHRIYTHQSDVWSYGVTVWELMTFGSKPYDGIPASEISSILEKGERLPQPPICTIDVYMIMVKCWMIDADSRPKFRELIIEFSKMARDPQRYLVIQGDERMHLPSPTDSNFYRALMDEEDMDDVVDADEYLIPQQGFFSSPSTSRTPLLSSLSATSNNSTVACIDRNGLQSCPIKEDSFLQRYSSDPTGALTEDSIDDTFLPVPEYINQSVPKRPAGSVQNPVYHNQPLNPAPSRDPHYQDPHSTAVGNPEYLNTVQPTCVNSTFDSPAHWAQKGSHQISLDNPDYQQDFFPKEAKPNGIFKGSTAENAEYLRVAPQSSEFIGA
Ba/F3 ERBB2 A775_G776insYVMA, sequence (P04626 with tags, fused parts or gaps DUP772-775): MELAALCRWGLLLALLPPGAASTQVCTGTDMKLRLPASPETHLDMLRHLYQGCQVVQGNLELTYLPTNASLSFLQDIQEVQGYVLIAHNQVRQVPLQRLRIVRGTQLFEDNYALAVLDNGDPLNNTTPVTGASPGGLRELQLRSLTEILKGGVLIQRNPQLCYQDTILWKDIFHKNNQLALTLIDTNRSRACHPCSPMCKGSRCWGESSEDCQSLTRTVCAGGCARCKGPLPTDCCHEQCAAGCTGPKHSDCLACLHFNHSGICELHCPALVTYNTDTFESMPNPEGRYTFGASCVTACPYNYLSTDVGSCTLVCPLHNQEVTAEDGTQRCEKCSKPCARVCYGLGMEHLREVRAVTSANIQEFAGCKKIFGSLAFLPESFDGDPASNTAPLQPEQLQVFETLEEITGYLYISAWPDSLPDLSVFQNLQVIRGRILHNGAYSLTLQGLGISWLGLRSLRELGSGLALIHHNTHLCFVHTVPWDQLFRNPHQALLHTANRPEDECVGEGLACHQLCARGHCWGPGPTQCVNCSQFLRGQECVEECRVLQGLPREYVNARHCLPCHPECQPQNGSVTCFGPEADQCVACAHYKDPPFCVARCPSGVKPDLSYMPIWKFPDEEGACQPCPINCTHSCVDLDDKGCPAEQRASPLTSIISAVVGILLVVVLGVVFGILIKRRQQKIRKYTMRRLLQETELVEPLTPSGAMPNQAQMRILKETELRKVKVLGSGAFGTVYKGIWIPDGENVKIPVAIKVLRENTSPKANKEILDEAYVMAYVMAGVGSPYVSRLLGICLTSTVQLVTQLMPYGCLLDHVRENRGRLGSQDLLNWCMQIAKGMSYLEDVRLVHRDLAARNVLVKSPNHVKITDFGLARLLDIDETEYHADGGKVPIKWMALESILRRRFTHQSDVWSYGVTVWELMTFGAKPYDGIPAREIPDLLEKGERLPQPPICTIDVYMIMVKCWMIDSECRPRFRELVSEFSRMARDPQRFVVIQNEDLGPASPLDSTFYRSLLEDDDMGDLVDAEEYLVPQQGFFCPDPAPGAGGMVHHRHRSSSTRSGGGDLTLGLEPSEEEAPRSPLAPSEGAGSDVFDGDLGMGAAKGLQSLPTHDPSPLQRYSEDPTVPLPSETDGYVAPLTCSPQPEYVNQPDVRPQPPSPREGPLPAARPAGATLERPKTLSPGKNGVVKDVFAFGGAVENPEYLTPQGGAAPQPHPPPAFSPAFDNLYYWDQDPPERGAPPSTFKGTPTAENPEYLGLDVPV

A word on the IC50: it is the concentration at which inhibition is half-maximal. Low values mean higher potency, high ones lower potency. For the molecule `CCc1ccc(Oc2ccc(Nc3ncnc4cnc(N5CC/C(=C\CN(C)C)C5=O)cc34)cc2C)cn1` [Compound 73, (E)-3-(2-(dimethylamino)ethylidene)-1-(4-((4-((6-ethylpyridin-3-yl)oxy)-3-methylphenyl)amino)pyrido[3,4-d]pyrimidin-6-yl)pyrrolidin-2-one], the GI50 in assay [1] worked out at 22 nM. The IC50 in assay [2] was determined as 514 nM; in assay [3], 41.5 nM.

As for `Cc1cc(Nc2ncnc3cnc(N4CC/C(=C\CN(C)C)C4=O)cc23)ccc1Oc1ccn2ncnc2c1` [Compound 74, (3E)-3-[2-(dimethylamino)ethylidene]-1-{4-[(3-methyl-4-{[1,2,4]triazolo[1,5-a]pyridin-7-yloxy}phenyl)amino]pyrido[3,4-d]pyrimidin-6-yl}pyrrolidin-2-one], the GI50 in assay [1] worked out at 5.17 nM. The IC50 in assay [2] is 2970 nM; in assay [3], 5.43 nM.

Take `Cc1ccc(Oc2ccc(Nc3ncnc4cnc(N5CC/C(=C\CN(C)C)C5=O)cc34)cc2C)cn1` [Compound 75, (3E)-3-[2-(dimethylamino)ethylidene]-1-[4-({3-methyl-4-[(6-methylpyridin-3-yl)oxy]phenyl}amino)pyrido[3,4-d]pyrimidin-6-yl]pyrrolidin-2-one]: the GI50 in assay [1] was found to be 10.4 nM. Further, the figures for the IC50 in assay [2] and in assay [3] were 697 nM and 20.4 nM, respectively.

Consider `Cc1cc(Nc2ncnc3cnc(N4CC/C(=C\CN(C)C)C4=O)cc23)c(F)cc1Oc1ccc2c(c1)ncn2C` [Compound 76, (3E)-3-[2-(dimethylamino)ethylidene]-1-[4-({2-fluoro-5-methyl-4-[(1-methyl-1,3-benzodiazol-5-yl)oxy]phenyl}amino)pyrido[3,4-d]pyrimidin-6-yl]pyrrolidin-2-one], for which the GI50 in assay [1] was > 500 nM. For the same molecule, the IC50 in assay [2] and in assay [3] was > 10000 nM each time.

For `Cc1c(Oc2ccc3c(c2)ncn3C)ccc(Nc2ncnc3cnc(N4CC/C(=C\CN(C)C)C4=O)cc23)c1F` [Compound 77, (3E)-3-[2-(dimethylamino)ethylidene]-1-[4-({2-fluoro-3-methyl-4-[(1-methyl-1,3-benzodiazol-5-yl)oxy]phenyl}amino)pyrido[3,4-d]pyrimidin-6-yl]pyrrolidin-2-one], in assay [1], the GI50 came to 3.61 nM. For the same molecule, the IC50 amounted to 7490 nM in assay [2] and 18.4 nM in assay [3].

In the case of `Cc1c(Oc2ccn3ncnc3c2)ccc(Nc2ncnc3ccc(N4CC/C(=C\CN(C)C)C4=O)nc23)c1F` [Compound 78, (3E)-3-[2-(dimethylamino)ethylidene]-1-{4-[(2-fluoro-3-methyl-4-{[1,2,4]triazolo[1,5-a]pyridin-7-yloxy}phenyl)amino]pyrido[3,2-d]pyrimidin-6-yl}pyrrolidin-2-one hydrochloride], the GI50 in assay [1] worked out at 9.92 nM. For the same molecule, the IC50 came out at 1570 nM in assay [2] and 16.8 nM in assay [3].

Turning to `Cc1cc(Nc2ncnc3ccc(N4CC/C(=C\CN(C)C)C4=O)nc23)c(F)cc1Oc1ccn2ncnc2c1` [Compound 79, (3E)-3-[2-(dimethylamino)ethylidene]-1-{4-[(2-fluoro-5-methyl-4-{[1,2,4]triazolo[1,5-a]pyridin-7-yloxy}phenyl)amino]pyrido[3,2-d]pyrimidin-6-yl}pyrrolidin-2-one], the GI50 in assay [1] turned out to be 2.92 nM. The concentration for half-maximal inhibition (IC50) in assay [2] is > 10000 nM; in assay [3], 8.77 nM.

As for `Cc1cc(Nc2ncnc3cnc(N4CC/C(=C\CN(C)C)C4=O)cc23)ccc1Oc1cccnc1` [Compound 80, (3E)-3-[2-(dimethylamino)ethylidene]-1-(4-{[3-methyl-4-(pyridin-3-yloxy)phenyl]amino}pyrido[3,4-d]pyrimidin-6-yl)pyrrolidin-2-one], the GI50 in assay [1] was 35.5 nM. In addition, the IC50 in assay [2] was 704 nM; in assay [3], 66.1 nM.
